# Measured values taken from patent publication US7001905B2, “Substituted diarylamines as MEK inhibitors” (Warner-Lambert Company, priority 2000, dated 2006).
# Biological target: T1, MEK (Homo sapiens, UniProt Q02750)
# T1 construct: no tag is given for the 2D mutant
# Assay: in vitro MEK assay
# Type: biochemical
# Settings: not given
# Protocol: For evaluation of direct MEK activity, 10 μg GST-MEK, is incubated in the presence of absence of test compound with 5 μg of a glutathione S-transferase fusion protein containing p44MAP kinase with a lysine to alanine mutation at position 71 (GST-MAPK-KA). This mutation eliminates kinase activity of MAPK, so only kinase activity attributed to the added MEK remains. Incubations are 15 minutes at 30° C. in a final volume of 50 μL containing 50 mM Tris (pH 7.5), […], 2, μM EGTA, and 10 μM [γ-^32P]ATP. The reaction is stopped by addition of Laemmli SDS sample buffer. Phosphorylated GST-MAPK-KA is resolved by electrophoresis on a 10% polyacrylamide gel. Radioactivity incorporated into GST-MAPK-KA is determined by autoradiography, and subsequent scintillation counting of excised bands.
# Alternatively, an artificially activated MEK containing serine to glutamate mutations at positions 218 and 222 (GST-MEK-2E) is used. When these two sites are phosphorylated, MEK activity is increased. Phosphorylation of these sites can be mimicked by mutation of the serine residues to glutamate. For this assay, 5 μg GST-MEK-2E is incubated with 5 μg GST-MAPK-KA for 15 minutes at 30° C. in the same reaction buffer as described above. Reactions are terminated and analyzed as above.
# T1 sequence (Q02750 whole entry S218D/S222D, form open): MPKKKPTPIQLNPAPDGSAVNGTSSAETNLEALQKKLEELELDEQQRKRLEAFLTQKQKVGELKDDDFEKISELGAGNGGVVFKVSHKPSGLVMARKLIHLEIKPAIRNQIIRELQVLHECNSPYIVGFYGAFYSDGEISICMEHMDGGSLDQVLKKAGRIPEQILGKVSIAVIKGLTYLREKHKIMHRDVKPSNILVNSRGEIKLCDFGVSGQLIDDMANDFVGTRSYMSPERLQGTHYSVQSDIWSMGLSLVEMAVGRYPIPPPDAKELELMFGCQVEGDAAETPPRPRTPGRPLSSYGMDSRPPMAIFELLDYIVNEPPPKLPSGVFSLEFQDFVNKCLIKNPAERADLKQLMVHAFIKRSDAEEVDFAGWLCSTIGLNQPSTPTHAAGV
row,SMILES,IC50 [nM]
1,"Cc1cc(I)ccc1Nc1c(C(=O)O)cc(C(=O)Nc2ccc3cn[nH]c3c2)c(F)c1F [Example 86, 4,5-Difluoro-N-(1H-indazol-6-yl)-6-(4-iodo-2-methyl-phenylamino)-isophthalamic acid]",1100
2,"Cc1cc(I)ccc1Nc1c(C(=O)O)cc(C(=O)NC(C)CO)c(F)c1F (stereo not drawn) [Example 87, 4,5-Difluoro-N-(2-hydroxy-1-methyl-ethyl)-6-(4-iodo-2-methyl-phenylamino)-isophthalamic acid]",2200
3,"Cc1cc(I)ccc1Nc1c(C(=O)O)cc(C(=O)NCc2cccnc2)c(F)c1F [Example 71, 4,5-Difluoro-6-(4-iodo-2-methyl-phenylamino)-N-pyridin-3-ylmethyl-isophthalamic acid]",1450
4,"Cc1cc(I)ccc1Nc1c(C(=O)O)cc(C(=O)NCCc2ccccn2)c(F)c1F [Example 67, 4,5-Difluoro-6-(4-iodo-2-methyl-phenylamino)-N-(2-pyridin-2-yl-ethyl)-isophthalamic acid]",3300

# Next, values leading:
row,IC50 [nM],SMILES
1,1500,"Cc1cc(I)ccc1Nc1c(C(=O)O)cc(C(=O)NCCN2CCOCC2)c(F)c1F [Example 79, 4,5-Difluoro-6-(4-iodo-2-methyl-phenylamino)-N-(2-morpholin-4-yl-ethyl)-isophthalamic acid]"
2,1800,"Cc1cc(I)ccc1Nc1c(C(=O)O)cc(C(=O)N2CCC(O)CC2)c(F)c1F [Example 81, 3,4-Difluoro-5-[1-(4-hydroxy-piperidin-1-yl)-methanoyl]-2-(4-iodo-2-methyl-phenylamino)-benzoic acid]"

# Same assay, conditions: @ 1 μM
row,SMILES,in vitro MEK assay: % inhibition @ 1 μM [%]
1,"Cc1cc(I)ccc1Nc1c(C(=O)O)cc(C(=O)Nc2ccc3cn[nH]c3c2)c(F)c1F [Example 86, 4,5-Difluoro-N-(1H-indazol-6-yl)-6-(4-iodo-2-methyl-phenylamino)-isophthalamic acid]",77
2,"Cc1cc(I)ccc1Nc1c(C(=O)O)cc(C(=O)N2CCOCC2)c(F)c1F [Example 89, 3,4-Difluoro-2-(4-iodo-2-methyl-1-phenylamino)-5-(1-morpholin-4-yl-methanoyl)-benzoic acid]",89
3,"Cc1cc(I)ccc1Nc1c(C(=O)O)cc(C(=O)Nc2cccnc2)c(F)c1F [Example 74, 4,5-Difluoro-6-(4-iodo-2-methyl-phenylamino)-N-pyridin-3-yl-isophthalamic acid]",50
4,"Cc1cc(I)ccc1Nc1c(C(=O)O)cc(C(=O)NC(C)CO)c(F)c1F (stereo not drawn) [Example 87, 4,5-Difluoro-N-(2-hydroxy-1-methyl-ethyl)-6-(4-iodo-2-methyl-phenylamino)-isophthalamic acid]",66
5,Cc1cc(I)ccc1Nc1c(C(=O)O)cc(C(=O)NCCN2CCCCC2)c(F)c1F [Example 102],25
6,"Cc1cc(I)ccc1N1COC(=O)c2cc(C(=O)N3CCSC3)c(F)c(F)c21 [Example 58, 7,8-Difluoro-1-(4-iodo-2-methyl-phenyl)-6-(thiazolidine-3-carbonyl)-1,2-dihydro-3,1-benzoxzin-4-one]",76
7,"Cc1cc(I)ccc1Nc1c(C(=O)O)cc(C(=O)N2CCCC(O)C2)c(F)c1F (stereo not drawn) [Example 101, 3,4-Difluoro-5-[1-(3-hydroxy-piperidin-1-yl)-methanoyl]-2-(4-iodo-2-methyl-phenylamino)-benzoic acid]",75
8,"Cc1cc(I)ccc1Nc1c(C(=O)O)cc(C(=O)NCc2cccnc2)c(F)c1F [Example 71, 4,5-Difluoro-6-(4-iodo-2-methyl-phenylamino)-N-pyridin-3-ylmethyl-isophthalamic acid]",86
9,"COc1ccc2[nH]cc(CCNC(=O)c3cc4c(c(F)c3F)N(c3ccc(I)cc3C)COC4=O)c2c1 [Example 47, 7,8-Difluoro-1-(4-iodo-2-methyl-2-phenyl)-4-oxo-1,4-dihydro-2H-3,1-benzoxazine-6-carboxylic acid [2-(5-methoxy-1H-indol-3-yl)ethyl]-amide]",0
10,"COc1ccc(N(C)C(=O)c2cc(C(=O)O)c(Nc3ccc(I)cc3C)c(F)c2F)cc1 [Example 94, 4,5-Difluoro-6-(4-iodo-2-methyl-phenylamino)-N-(4-methoxy-phenyl)-N-methyl-isophthalamic acid]",92
11,"Cc1cc(I)ccc1Nc1c(C(=O)O)cc(C(=O)NCCc2ccccn2)c(F)c1F [Example 67, 4,5-Difluoro-6-(4-iodo-2-methyl-phenylamino)-N-(2-pyridin-2-yl-ethyl)-isophthalamic acid]",81
12,"Cc1cc(I)ccc1Nc1c(C(=O)O)cc(C(=O)NCCCN2CCCC2=O)c(F)c1F [Example 62, 4,5-Difluoro-6-(4-iodo-2-methyl-phenylamino)-N-[3-(2-oxo-pyrrolidin-1-yl)-propyl]-isophthalamic acid]",78

# Second part, the compound after the results:
row,in vitro MEK assay: % inhibition @ 1 μM [%],SMILES
1,1,"Cc1cc(I)ccc1N1COC(=O)c2cc(C(=O)N3CCNCC3)c(F)c(F)c21 [Example 56, 7,8-Difluoro-1-(4-iodo-2-methyl-phenyl)-6-(piperazine-1-carbonyl)-1,2-dihydro-3,1-benzoxazin-4-one]"
2,69,"Cc1cc(I)ccc1N1COC(=O)c2cc(C(=O)N3CCC(CCO)CC3)c(F)c(F)c21 [Example 44, 7,8-Difluoro-6-[4-(2-hydroxy-ethyl)-piperidine-1-carbonyl]-1-(4-iodo-2-methyl-phenyl)-1,2-dihydro-3,1-benzoxazin-4-one]"
3,21,"Cc1cc(I)ccc1N1COC(=O)c2cc(C(=O)NCCCN3CCCC3=O)c(F)c(F)c21 [Example 12, 7,8-Difluoro-1-(4-iodo-2-methyl-phenyl)-4-oxo-1,4-dihydro-2H-3,1-benzoxazine-6-carboxylic acid [3-(2-oxo-pyrrolidin-1-y)-propyl]-amide]"
4,54,"Cc1cc(I)ccc1Nc1c(C(=O)O)cc(C(=O)NCCN2CCOCC2)c(F)c1F [Example 79, 4,5-Difluoro-6-(4-iodo-2-methyl-phenylamino)-N-(2-morpholin-4-yl-ethyl)-isophthalamic acid]"
5,41,"Cc1cc(I)ccc1N1COC(=O)c2cc(C(=O)N(C)CCO)c(F)c(F)c21 [Example 20, 7,8-Difluoro-1-(4-iodo-2-methyl-phenyl)-4-oxo-1,4-dihydro-2H-3,1-benzoxazine-6-carboxylic acid (2-hydroxy-ethyl)-methyl-amide]"
6,52,"Cc1cc(I)ccc1N1COC(=O)c2cc(C(=O)N3CCC(O)CC3)c(F)c(F)c21 [Example 43, 7,8-Difluoro-6-(4-hydroxy-piperidine-1-carbonyl)1-(4-iodo-2-methyl-phenyl)-1,2-dihydro-3,1-benzoxazin-4-one]"
7,80,"Cc1cc(I)ccc1Nc1c(C(=O)O)cc(C(=O)Nc2ccc(N(C)C)cc2)c(F)c1F [Example 92, N-(4-Dimethylamino-phenyl)-4,5-difluoro-6-(iodo-methyl-phenylamino)-isophthalamic acid]"
8,93,"COC[C@@H]1CCCN1C(=O)c1cc2c(c(F)c1F)N(c1ccc(I)cc1C)COC2=O [Example 9, 7,8-Difluoro-1-(4-iodo-2-methyl-phenyl)-6-((S)-2-methoxymethyl-pyrrolidine-1-carbonyl)-1,2-dihydro-3,1-benzoxazin-4-one]"
9,46,"COCC(C)NC(=O)c1cc2c(c(F)c1F)N(c1ccc(I)cc1C)COC2=O (stereo not drawn) [Example 22, 7,8-Difluoro-1-(4-iodo-2-methyl-phenyl)-4-oxo-1,4-dihydro-2H-3,1-benzoxazine-6-carboxylic acid (2-methoxy-1-methyl-ethyl)-amide]"
10,70,"CCN1CCN(C(=O)c2cc(C(=O)O)c(Nc3ccc(I)cc3C)c(F)c2F)CC1 [Example 93, 5-[1-(4-Ethyl-piperazin-1-yl)-methanoyl]-3,4-difluoro-2-(4-iodo-2-methyl-phenylamino)-benzoic acid]"
11,33,"Cc1cc(I)ccc1N1COC(=O)c2cc(C(=O)NCCN3CCCC3)c(F)c(F)c21 [Example 11, 7,8-Difluoro-1-(4-iodo-2-methyl-phenyl)-4-oxo-1,4-dihydro-2H-3,1-benzoxazine-6-carboxylic acid (2-pyrrolidin-1-yl-ethyl)-amide]"
12,86,"Cc1cc(I)ccc1Nc1c(C(=O)O)cc(C(=O)N2CCC(O)CC2)c(F)c1F [Example 81, 3,4-Difluoro-5-[1-(4-hydroxy-piperidin-1-yl)-methanoyl]-2-(4-iodo-2-methyl-phenylamino)-benzoic acid]"
13,41,"Cc1cc(I)ccc1N1COC(=O)c2cc(C(=O)N(C)CCc3c[nH]c4ccccc34)c(F)c(F)c21 [Example 55, 7,8-Difluoro-1-(4-iodo-2-methyl-phenyl)-4-oxo-1,4-dihydro-2H-3,1-benzoxazine-6-carboxylic acid [2-(1H-indol-3-yl)ethyl]-methyl-amide]"
14,26,"Cc1cc(I)ccc1N1COC(=O)c2cc(C(=O)Nc3nc4c(C)cccc4s3)c(F)c(F)c21 [Example 23, 7,8-Difluoro-1-(4-iodo-2-methyl-phenyl)-4-oxo-1,4-dihydro-2H-3,1-benzoxazine-6-carboxylic acid (4-methyl-benzothiazol-2-yl)-amide]"
15,81,"Cc1cc(I)ccc1Nc1c(C(=O)O)cc(C(=O)NCC2CCCO2)c(F)c1F (stereo not drawn) [Example 97, 4,5-Difluoro-6-(4-iodo-2-methyl-phenylamino)-N-(tetrahydro-furan-2-ylmethyl)-isophthalamic acid]"
16,56,"CCN1CCN(C(=O)c2cc3c(c(F)c2F)N(c2ccc(I)cc2C)COC3=O)CC1 [Example 54, 6-(4-Ethyl-piperazine-1-carbonyl)-7,8-difluoro-1-(4-iodo-2-methyl-phenyl)-1,2-dihydro-3,1-benzoxazin-4-one]"
17,71,"Cc1cc(I)ccc1N1COC(=O)c2cc(C(=O)N3CCCC(CO)C3)c(F)c(F)c21 (stereo not drawn) [Example 39, 7,8-Difluoro-6-(3-hydroxymethyl-piperidine-1-carbonyl)-1-(4-iodo-2-methyl-phenyl)-1,2-dihydro-3,1-benzoxazin-4-one]"
18,49,"Cc1cc(I)ccc1Nc1c(C(=O)O)cc(C(=O)N2CCCCC2CO)c(F)c1F (stereo not drawn) [Example 70, 3,4-Difluoro-5-[1-(2-hydroxymethyl-piperidin-1-yl)-methanoyl]-2-(4-iodo-2-methyl-phenylamino)-benzoic acid]"
